# Test results: patent US20230085307A1, “PYRIDAZINONE COMPOUND AND HERBICIDE” (NISSAN CHEMICAL CORPORATION, priority 2019, published 2023)
# Legend:
# directly sowed rice = experiment: Test Example 3: effect on crop by foliage application, Wagner pot (Table 18, symbol b); assay type: in vivo; details: 320 g/ha
# Outline: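 Plants were sown in alluvial soil held under 0.1–0.5 cm standing water and grown 14 days in a greenhouse at 25–30 °C. An emulsifiable formulation, water-diluted to the set dose, was then sprayed onto the foliage, and effects were scored three weeks later using previously defined criteria.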
# rapeseed [1] = experiment: Test Example 4: effect on crop by soil treatment (Table 19, symbol g); assay type: in vivo
# Outline: (§1)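 Three weeks of greenhouse growth at 25° C. to 30° C. followed a uniform surface spray of water-diluted emulsion at a predetermined herbicide amount. Seeds had been sown beforehand under about 1.5 cm of sterilized diluvial soil. Grading followed criteria set out in an earlier test.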
# wild oat = experiment: Test Example 4: herbicidal effect by soil treatment (Table 19, symbol I); assay type: in vivo, wild oat (Avena fatua)
# Outline: as §1
# false cleavers [2] = experiment: Test Example 5: herbicidal effect by foliage application, plastic box (Table 20, symbol Q); assay type: in vivo, false cleavers (Galium spurium); details: foliage application, 320 g/ha
# Outline: (§2)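 Plants sown in sterilized diluvial soil and grown 14 days in a greenhouse at 25° C to 30° C, then sprayed on the foliage with the compound's emulsion diluted in water to a predetermined herbicide amount. Injury to weeds and crops scored three weeks after application on a visual rating scale.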
# corn [3] = experiment: Test Example 5: effect on crop by foliage application, plastic box (Table 20, symbol c); assay type: in vivo; details: 320 g/ha
# Outline: as §2
# beet [4] = experiment: Test Example 4: effect on crop by soil treatment (Table 19, symbol f); assay type: in vivo
# Outline: as §1
# soybean [5] = experiment: Test Example 4: effect on crop by soil treatment (Table 19, symbol d); assay type: in vivo
# Outline: as §1
# corn [6] = experiment: Test Example 4: effect on crop by soil treatment (Table 19, symbol c); assay type: in vivo
# Outline: as §1
# transplanted rice = experiment: Test Example 1: effect on crop, application before weed generation under submerged conditions (Table 16, symbol a); assay type: in vivo; details: 320 g/ha applied herbicide
# Outline: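 Alluvial soil was flooded to 4 cm depth, weed seeds were sown mixed and 2.5-leaf rice seedlings were transplanted. On sowing day, the compound's emulsion, diluted in water to a set dose, was applied to the water surface. Plants grew at 25–30 °C and were scored 0–5 after three weeks.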
# soybean [7] = experiment: Test Example 5: effect on crop by foliage application, plastic box (Table 20, symbol d); assay type: in vivo; details: 320 g/ha
# Outline: as §2
# wheat [8] = experiment: Test Example 4: effect on crop by soil treatment (Table 19, symbol e); assay type: in vivo
# Outline: as §1
# wheat [9] = experiment: Test Example 5: effect on crop by foliage application, plastic box (Table 20, symbol e); assay type: in vivo; details: 320 g/ha
# Outline: as §2
# beet [10] = experiment: Test Example 5: effect on crop by foliage application, plastic box (Table 20, symbol f); assay type: in vivo; details: 320 g/ha
# Outline: as §2
# false cleavers [11] = experiment: Test Example 4: herbicidal effect by soil treatment (Table 19, symbol Q); assay type: in vivo, false cleavers (Galium spurium)
# Outline: as §1
# rapeseed [12] = experiment: Test Example 5: effect on crop by foliage application, plastic box (Table 20, symbol g); assay type: in vivo; details: 320 g/ha
# Outline: as §2
# [13] = evaluated three weeks after application
# [14] = amount of applied herbicide 320 g/ha
smiles,measurement,setting,value
"COc1cc(F)ccc1-c1sc2ccc(Cl)cc2c1-c1c(O)c(C)nn(C)c1=O [Compound No. 2-095, 4-(5-chloro-2-(4-fluoro-2-methoxyphenyl)benzo[b]thiophen-3-yl)-5-hydroxy-2,6-dimethylpyridazin-3(2H)-one]","effect on crop b (directly sowed rice), rating 0-5",directly sowed rice,1 (Herbicidal rate of 5% or more and less than 20%)
same,"effect rating on crop, g: rapeseed",rapeseed [1]; 320 g/ha,1 (Herbicidal rate of 5% or more and less than 20%)
same,"herbicidal effect rating, I: wild oat",wild oat; 320 g/ha,0 (Herbicidal rate of 5% or less (almost no effect))
same,herbicidal effect on Q: false cleavers,false cleavers [2]; [13],5 (Herbicidal rate of 90% or more (almost completely withered))
same,"effect on crop, c: corn",corn [3]; [13],1 (Herbicidal rate of 5% or more and less than 20%)
same,"effect rating on crop, f: beet",beet [4]; 320 g/ha,4 (Herbicidal rate of 70% or more and less than 90%)
same,"effect rating on crop, d: soybean",soybean [5]; 320 g/ha,0 (Herbicidal rate of 5% or less (almost no effect))
same,melting point,,221 to 223 °C
same,"effect rating on crop, c: corn",corn [6]; 320 g/ha,0 (Herbicidal rate of 5% or less (almost no effect))
same,Effect on crop a: transplanted rice (grade 0-5),transplanted rice,0 (Herbicidal rate of 5% or less (almost no effect))
same,"effect on crop, d: soybean",soybean [7]; [13],4 (Herbicidal rate of 70% or more and less than 90%)
same,"effect rating on crop, e: wheat",wheat [8]; 320 g/ha,0 (Herbicidal rate of 5% or less (almost no effect))
same,"effect on crop, e: wheat",wheat [9]; [13],1 (Herbicidal rate of 5% or more and less than 20%)
same,"effect on crop, f: beet",beet [10]; [13],5 (Herbicidal rate of 90% or more (almost completely withered))
same,"herbicidal effect rating, Q: false cleavers",false cleavers [11]; 320 g/ha,4 (Herbicidal rate of 70% or more and less than 90%)
same,"effect on crop, g: rapeseed",rapeseed [12]; [13],5 (Herbicidal rate of 90% or more (almost completely withered))
"Cc1nn(C)c(=O)c(-c2c(-c3ccc(C#N)cc3)sc3ccccc23)c1O [Compound No. 1-045, 5-hydroxy-2,6-dimethyl-4-(2-(4-cyanophenyl)benzo[b]thiophen-3-yl)pyridazin-3(2H)-one]","effect on crop b (directly sowed rice), rating 0-5",directly sowed rice,0 (Herbicidal rate of 5% or less (almost no effect))
same,"effect rating on crop, g: rapeseed",rapeseed [1]; [14],5 (Herbicidal rate of 90% or more (almost completely withered))
same,"herbicidal effect rating, I: wild oat",wild oat; [14],0 (Herbicidal rate of 5% or less (almost no effect))
same,"herbicidal effect grade, Q: false cleavers",false cleavers [2]; three weeks after application,5 (Herbicidal rate of 90% or more (almost completely withered))
same,"effect on crop grade, c: corn",corn [3]; three weeks after application,0 (Herbicidal rate of 5% or less (almost no effect))
same,"effect rating on crop, f: beet",beet [4]; [14],5 (Herbicidal rate of 90% or more (almost completely withered))
same,"effect rating on crop, d: soybean",soybean [5]; [14],3 (Herbicidal rate of 40% or more and less than 70%)
same,melting point,,240 to 242 °C
same,"effect rating on crop, c: corn",corn [6]; [14],0 (Herbicidal rate of 5% or less (almost no effect))
same,Effect on crop a: transplanted rice (grade 0-5),transplanted rice,0 (Herbicidal rate of 5% or less (almost no effect))
same,"effect on crop grade, d: soybean",soybean [7]; three weeks after application,1 (Herbicidal rate of 5% or more and less than 20%)
same,"effect rating on crop, e: wheat",wheat [8]; [14],0 (Herbicidal rate of 5% or less (almost no effect))
same,"effect on crop grade, e: wheat",wheat [9]; three weeks after application,0 (Herbicidal rate of 5% or less (almost no effect))
same,"effect on crop grade, f: beet",beet [10]; three weeks after application,5 (Herbicidal rate of 90% or more (almost completely withered))
same,"herbicidal effect rating, Q: false cleavers",false cleavers [11]; [14],4 (Herbicidal rate of 70% or more and less than 90%)
same,"effect on crop grade, g: rapeseed",rapeseed [12]; three weeks after application,5 (Herbicidal rate of 90% or more (almost completely withered))
